Laboratory results as given in ChEMBL document CHEMBL1201862, “PubChem BioAssay data set” (2004).
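Cultured in 96-well plates, cells were exposed to test compound for 48 hours across five concentrations. The concentration for 50% growth inhibition is given as GI50.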 Calls of active or inactive are those of the source. Cut-off read from the data, not from the text of the source: active = GI50 up to about 1.1 µM and inactive = higher.

How the values were obtained:
Assay in all cases: inhibition of tumour cell growth, NCI panel, 48 h
ACHN = test system: ACHN
HOP-92 = test system: HOP-92
HT-29 = test system: HT-29
MCF7 = test system: MCF7
MDA-MB-231 = test system: MDA-MB-231
NCI-H226 = test system: NCI-H226
RPMI-8226 = test system: RPMI-8226
RXF 393 = test system: RXF 393
SF-539 = test system: SF-539
SK-MEL-5 = test system: SK-MEL-5
SK-OV-3 = test system: SK-OV-3
SN12C = test system: SN12C
SNB-19 = test system: SNB-19
SW-620 = test system: SW-620
T47D = test system: T47D
U-251 = test system: U-251
UACC-257 = test system: UACC-257
UO-31 = test system: UO-31
NCI-H522 = test system: NCI-H522
Malme-3M = test system: Malme-3M

Row | Compound | GI50 (ACHN) | GI50 (HOP-92) | GI50 (HT-29) | GI50 (MCF7) | GI50 (MDA-MB-231) | GI50 (NCI-H226) | GI50 (RPMI-8226) | GI50 (RXF 393) | GI50 (SF-539) | GI50 (SK-MEL-5) | GI50 (SK-OV-3) | GI50 (SN12C) | GI50 (SNB-19) | GI50 (SW-620) | GI50 (T47D) | GI50 (U-251) | GI50 (UACC-257) | GI50 (UO-31) | GI50 (NCI-H522) | GI50 (Malme-3M)
1 | O=C(Cc1ccccc1)NN1C(=O)/C(=C\c2ccc([N+](=O)[O-])cc2)S/C1=N\c1ccccc1 | > 100 µM (inactive) | 68.9 µM (inactive) | > 100 µM (inactive) | 63.2 µM (inactive) | > 100 µM (inactive) | > 100 µM (inactive) | > 100 µM (inactive) | > 100 µM (inactive) | > 100 µM (inactive) | > 100 µM (inactive) | > 100 µM (inactive) | > 100 µM (inactive) | > 100 µM (inactive) | > 100 µM (inactive) | 62.1 µM (inactive) | > 100 µM (inactive) | > 100 µM (inactive) | > 100 µM (inactive) |  | 
2 | O=C(CCCCCC(=O)N1CC(CCl)c2ccc([N+](=O)[O-])cc21)N1CC(CCl)c2ccc([N+](=O)[O-])cc21 (centres undefined) | > 100 µM (inactive) | > 100 µM (inactive) |  | 36.9 µM (inactive) | > 100 µM (inactive) | > 100 µM (inactive) |  | > 100 µM (inactive) | > 100 µM (inactive) | 52.5 µM (inactive) | > 100 µM (inactive) | > 100 µM (inactive) | > 100 µM (inactive) | > 100 µM (inactive) | > 100 µM (inactive) | > 100 µM (inactive) | > 100 µM (inactive) | > 100 µM (inactive) | > 100 µM (inactive) | 
3 | COP(=O)(O)/C=C/C(NC(=O)C(Cl)(Cl)Cl)c1ccccc1 (centres undefined) | > 100 µM (inactive) | > 100 µM (inactive) | > 100 µM (inactive) | > 100 µM (inactive) | > 100 µM (inactive) | > 100 µM (inactive) | > 100 µM (inactive) | > 100 µM (inactive) |  | > 100 µM (inactive) | > 100 µM (inactive) | > 100 µM (inactive) | > 100 µM (inactive) | > 100 µM (inactive) | > 100 µM (inactive) | > 100 µM (inactive) | > 100 µM (inactive) | > 100 µM (inactive) | > 100 µM (inactive) | > 100 µM (inactive)
4 | CC1(C)[N+]([O-])=[N+]([O-])C1(Br)c1ccccc1 (centres undefined) | > 100 µM (inactive) | > 100 µM (inactive) | 39.3 µM (inactive) | 72.9 µM (inactive) | 59.6 µM (inactive) | > 100 µM (inactive) | 42.7 µM (inactive) | 25.8 µM (inactive) | > 100 µM (inactive) | > 100 µM (inactive) | > 100 µM (inactive) | > 100 µM (inactive) | > 100 µM (inactive) | > 100 µM (inactive) | > 100 µM (inactive) | > 100 µM (inactive) | 54.8 µM (inactive) | 28.8 µM (inactive) |  | > 100 µM (inactive)
5 | CC(C)C(C(=O)O)N1C(=O)c2ccccc2C1=O (centres undefined) | > 100 µM (inactive) | > 100 µM (inactive) | > 100 µM (inactive) | > 100 µM (inactive) | > 100 µM (inactive) | > 100 µM (inactive) | > 100 µM (inactive) | > 100 µM (inactive) |  | > 100 µM (inactive) | > 100 µM (inactive) | > 100 µM (inactive) | > 100 µM (inactive) | > 100 µM (inactive) | > 100 µM (inactive) | > 100 µM (inactive) | > 100 µM (inactive) |  | > 100 µM (inactive) | > 100 µM (inactive)
6 | CCCC(=O)N(C(=O)CCC)C1=C(Cl)C(=O)c2ccccc2C1=O | 1.28 µM (inactive) | 4.01 µM (inactive) | 8.51 µM (inactive) | 1.84 µM (inactive) | 18.2 µM (inactive) | 8.38 µM (inactive) |  | 2.17 µM (inactive) | 3.62 µM (inactive) | 3.1 µM (inactive) | 15.5 µM (inactive) | 13.3 µM (inactive) | 6.73 µM (inactive) | 2.87 µM (inactive) | 2.33 µM (inactive) | 4.08 µM (inactive) | 3.42 µM (inactive) | 1.62 µM (inactive) | 0.611 µM (active) | 
